Data reported in US4599424A, “5-substituted thiadiazole ureas and their use as herbicides” (priority 1979, dated 1986).

Columns and labels:
[1] = test system: a variety of crops and weed species; test: Pre- and post-emergence herbicide tests, overall assessment of TABLES III-VI; type: in vivo; details: from data of TABLES III-VI
Description: (§1) All crop and weed species were planted individually in 3" plastic pots containing potting soil. Four seeds each of corn, cotton, and snapbeans were seeded to a depth equal to the diameter of the seed. All other species were surface seeded and sprinkled with screened soil in an amount sufficient to cover the seed. Immediately after planting, all pots were watered by sub-irrigation in greenhouse trays. Pots for the pre-emergence phase were seeded one day before treatment.
(§2) Planting dates for the post-emergence phase were varied so that all seedlings would reach the desired stage of development simultaneously. The proper stage of seedling development for treatment in the post-emergence phase is as follows:
(§3) Compounds were tested at rates of application equivalent to 8 lbs. of actual compound per acre in a spray volume of 38 gallons per acre. Spray hood constants required to deliver the above volume are as follows:
(§4) Two weeks after treatment, pre- and post-emergence injury or control was visually rated, and the results were as shown in the following tables. Pre-emergence data are provided in TABLE III and post-emergence data are provided in TABLE IV, for compounds having the formula illustrated in TABLE I. Correspondingly, pre-emergence and post-emergence data, respectively, are set forth in TABLES V AND VI, for compounds having the formula illustrated in TABLE II.
Typical of such compounds are: 1, 2, 5, 26, 36, and 37.

[2] = test system: Crabgrass (CG); test: Pre-emergence herbicide test, crabgrass; type: in vivo, Digitaria sanguinalis; details: two weeks
Description: (§5) Crabgrass (CG)--Digitaria sanguinalis
as §1
(§6) Spray hood constants required to deliver the above volume are as follows:
(§7) Formulations for spray applications were prepared in 50 ml volumes with the following three components:
(§8) Formulations for the 4 lbs/acre rate were prepared by adjusting the amount of active ingredient accordingly.
(§9) Spray applications were made in a hood containing a removable belt and fixed spray nozzle. For passage through the spray hood, one pot of each specie (pre-emergence phase) was placed on the rear half of the flat. Treatments were removed to the greenhouse after spraying. Watering during the observation period was done only by sub-irrigation.
as §4

[3] = test system: Yellow foxtail grass (YF); test: Pre-emergence herbicide test, yellow foxtail grass; type: in vivo, Setarin glauca; details: two weeks
Description: (§10) Yellow foxtail grass (YF)--Setarin glauca
as §1, §6
(§11) Formulations for spray applications were prepared in 50 ml volumes with the following three components: […]
as §9, §4

[4] = test system: Johnson grass (JG); test: Pre-emergence herbicide test, Johnson grass; type: in vivo, Sorgum helepense; details: two weeks
Description: (§12) Johnson grass (JG)--Sorgum helepense
as §1, §6, §11, §9, §4

[5] = test system: Barnyard grass (BG); test: Pre-emergence herbicide test, barnyard grass; type: in vivo, Echinochloa crus-galli; details: two weeks
Description: (§13) Barnyard grass (BG)--Echinochloa crus-galli
as §1, §3, §7, §8, §9, §4

[6] = test system: Amaranth pigweed (PW); test: Pre-emergence herbicide test, amaranth pigweed; type: in vivo, Amaranthus retroflexus; details: two weeks
Description: (§14) Amaranth pigweed (PW)--Amaranthus retroflexus
as §1, §3, §7, §8, §9, §4

[7] = test system: Turnip (TP); test: Pre-emergence herbicide test, turnip; type: in vivo, Brassica sp.; details: two weeks
Description: (§15) Turnip (TP)--Brassica sp.
as §1, §6, §11, §9, §4

[8] = test system: Cotton (CT); test: Pre-emergence herbicide test, cotton; type: in vivo, Gossypium hirsutum var. DPL smooth leaf; details: two weeks
Description: (§16) Cotton (CT)--Gossypium hirsutum var. DPL smooth leaf
as §1, §3, §7, §8, §9, §4

[9] = test system: Corn (CN); test: Pre-emergence herbicide test, corn; type: in vivo, Zea mays; details: two weeks
Description: as §1, §3, §7, §8, §9, §4

[10] = test system: Bean (BN); test: Pre-emergence herbicide test, bean; type: in vivo, Phaseolus vulgaris var. Black Valentine; details: two weeks
Description: (§17) Bean (BN)--Phaseolus vulgaris var. Black Valentine
as §1, §3, §7, §8, §9, §4

[11] = test system: Crabgrass (CG); test: Post-emergence herbicide test, crabgrass; type: in vivo, Digitaria sanguinalis; details: two weeks
Description: as §5, §1, §2, §6, §11, §9, §4

[12] = test system: Yellow foxtail grass (YF); test: Post-emergence herbicide test, yellow foxtail grass; type: in vivo, Setarin glauca; details: two weeks
Description: as §10, §1, §2, §3, §7, §8, §9, §4

[13] = test system: Johnson grass (JG); test: Post-emergence herbicide test, Johnson grass; type: in vivo, Sorgum helepense; details: two weeks
Description: as §12, §1, §2, §6, §11, §9, §4

[14] = test system: Barnyard grass (BG); test: Post-emergence herbicide test, barnyard grass; type: in vivo, Echinochloa crus-galli; details: two weeks
Description: as §13, §1, §2, §6, §11, §9, §4

[15] = test system: Amaranth pigweed (PW); test: Post-emergence herbicide test, amaranth pigweed; type: in vivo, Amaranthus retroflexus; details: two weeks
Description: as §14, §1, §2
(§18) Pigweed and turnips: 1 or 2 true leaves above visible cotyledons.
as §3, §7, §8, §9, §4

[16] = test system: Turnip (TP); test: Post-emergence herbicide test, turnip; type: in vivo, Brassica sp.; details: two weeks
Description: as §15, §1, §2, §18, §6, §11, §9, §4

[17] = test system: Cotton (CT); test: Post-emergence herbicide test, cotton; type: in vivo, Gossypium hirsutum var. DPL smooth leaf; details: two weeks
Description: as §16, §1, §2
cotton: first true leaf 1" in length; expanded cotyledons.
as §6, §7, §8, §9, §4

[18] = test system: Corn (CN); test: Post-emergence herbicide test, corn; type: in vivo, Zea mays; details: two weeks
Description: as §1, §2, §3, §7, §8, §9, §4

[19] = test system: Bean (BN); test: Post-emergence herbicide test, bean; type: in vivo, Phaseolus vulgaris var. Black Valentine; details: two weeks
Description: as §17, §1, §2
Beans: primary leaves expanded, growing point at primary leaf nodes.
as §6, §7, §8, §9, §4

## CNC(=O)Nc1nnc(C(F)(F)F)s1 [Example 1, 1-Methyl-3-[5-Trifluoromethyl-2-(1,3,4-Thiadiazolyl)]Urea]
[1]
  herbicidal effectiveness and selectivity (in words): extremely effective

## C=CCNC(=O)Nc1nnc(C(F)(F)F)s1 [Example 12]
[1]
  herbicidal effectiveness and selectivity (in words): control post-emergence growth, while have little effect in regard to pre-emergence

## CNC(=O)Nc1nnc(CC(C)C)s1 [Example 21]
[1]
  herbicidal effectiveness and selectivity (in words): more selective

## CCNC(=O)Nc1nnc(C(F)(F)F)s1 [Example 9]
[1]
  herbicidal effectiveness and selectivity (in words): more selective

## CNC(=O)N(C)c1nnc(C(C)(C)C)s1 [Example 42]
[2]; 2 lb/acre
  PRE-EMERGENCE ACTIVITY, % CONTROL: 90%
[2]; 4 lb/acre
  PRE-EMERGENCE ACTIVITY, % CONTROL: 90%
[2]; 8 lb/acre
  PRE-EMERGENCE ACTIVITY, % CONTROL: 90%
[3]; 2 lb/acre
  PRE-EMERGENCE ACTIVITY, % CONTROL: 90%
[3]; 4 lb/acre
  PRE-EMERGENCE ACTIVITY, % CONTROL: 80%
[3]; 8 lb/acre
  PRE-EMERGENCE ACTIVITY, % CONTROL: 90%
[4]; 2 lb/acre
  PRE-EMERGENCE ACTIVITY, % CONTROL: 70%
[4]; 4 lb/acre
  PRE-EMERGENCE ACTIVITY, % CONTROL: 90%
[4]; 8 lb/acre
  PRE-EMERGENCE ACTIVITY, % CONTROL: 100%
[5]; 2 lb/acre
  PRE-EMERGENCE ACTIVITY, % CONTROL: 80%
[5]; 4 lb/acre
  PRE-EMERGENCE ACTIVITY, % CONTROL: 90%
[5]; 8 lb/acre
  PRE-EMERGENCE ACTIVITY, % CONTROL: 90%
[6]; 2 lb/acre
  PRE-EMERGENCE ACTIVITY, % CONTROL: 100%
[6]; 4 lb/acre
  PRE-EMERGENCE ACTIVITY, % CONTROL: 100%
[6]; 8 lb/acre
  PRE-EMERGENCE ACTIVITY, % CONTROL: 100%
[7]; 2 lb/acre
  PRE-EMERGENCE ACTIVITY, % CONTROL: 100%
[7]; 4 lb/acre
  PRE-EMERGENCE ACTIVITY, % CONTROL: 90%
[7]; 8 lb/acre
  PRE-EMERGENCE ACTIVITY, % CONTROL: 100%
[8]; 2 lb/acre
  PRE-EMERGENCE ACTIVITY, % CONTROL: 30%
[8]; 4 lb/acre
  PRE-EMERGENCE ACTIVITY, % CONTROL: 70%
[8]; 8 lb/acre
  PRE-EMERGENCE ACTIVITY, % CONTROL: 90%
[9]; 2 lb/acre
  PRE-EMERGENCE ACTIVITY, % CONTROL: 0%
[9]; 4 lb/acre
  PRE-EMERGENCE ACTIVITY, % CONTROL: 60%
[9]; 8 lb/acre
  PRE-EMERGENCE ACTIVITY, % CONTROL: 90%
[10]; 2 lb/acre
  PRE-EMERGENCE ACTIVITY, % CONTROL: 40%
[10]; 4 lb/acre
  PRE-EMERGENCE ACTIVITY, % CONTROL: 90%
[10]; 8 lb/acre
  PRE-EMERGENCE ACTIVITY, % CONTROL: 100%
[11]; 2 lb/acre
  POST-EMERGENCE ACTIVITY, % CONTROL: 40%
[11]; 4 lb/acre
  POST-EMERGENCE ACTIVITY, % CONTROL: 70%
[11]; 8 lb/acre
  POST-EMERGENCE ACTIVITY, % CONTROL: 100%
[12]; 2 lb/acre
  POST-EMERGENCE ACTIVITY, % CONTROL: 90%
[12]; 4 lb/acre
  POST-EMERGENCE ACTIVITY, % CONTROL: 90%
[12]; 8 lb/acre
  POST-EMERGENCE ACTIVITY, % CONTROL: 100%
[13]; 2 lb/acre
  POST-EMERGENCE ACTIVITY, % CONTROL: 70%
[13]; 4 lb/acre
  POST-EMERGENCE ACTIVITY, % CONTROL: 90%
[13]; 8 lb/acre
  POST-EMERGENCE ACTIVITY, % CONTROL: 100%
[14]; 2 lb/acre
  POST-EMERGENCE ACTIVITY, % CONTROL: 90%
[14]; 4 lb/acre
  POST-EMERGENCE ACTIVITY, % CONTROL: 90%
[14]; 8 lb/acre
  POST-EMERGENCE ACTIVITY, % CONTROL: 100%
[15]; 2 lb/acre
  POST-EMERGENCE ACTIVITY, % CONTROL: 100%
[15]; 4 lb/acre
  POST-EMERGENCE ACTIVITY, % CONTROL: 100%
[15]; 8 lb/acre
  POST-EMERGENCE ACTIVITY, % CONTROL: 100%
[16]; 2 lb/acre
  POST-EMERGENCE ACTIVITY, % CONTROL: 100%
[16]; 4 lb/acre
  POST-EMERGENCE ACTIVITY, % CONTROL: 100%
[16]; 8 lb/acre
  POST-EMERGENCE ACTIVITY, % CONTROL: 100%
[17]; 2 lb/acre
  POST-EMERGENCE ACTIVITY, % CONTROL: 100%
[17]; 4 lb/acre
  POST-EMERGENCE ACTIVITY, % CONTROL: 100%
[17]; 8 lb/acre
  POST-EMERGENCE ACTIVITY, % CONTROL: 100%
[18]; 2 lb/acre
  POST-EMERGENCE ACTIVITY, % CONTROL: 70%
[18]; 4 lb/acre
  POST-EMERGENCE ACTIVITY, % CONTROL: 70%
[18]; 8 lb/acre
  POST-EMERGENCE ACTIVITY, % CONTROL: 100%
[19]; 2 lb/acre
  POST-EMERGENCE ACTIVITY, % CONTROL: 80%
[19]; 4 lb/acre
  POST-EMERGENCE ACTIVITY, % CONTROL: 100%
[19]; 8 lb/acre
  POST-EMERGENCE ACTIVITY, % CONTROL: 100%
